Measured values taken from patent US10597388B2, “Pyridazinone herbicides” (FMC CORPORATION, priority 2014, dated 2020).

Tests used:
Assay in all cases: Test D controlled growth environment herbicide test, pre- and postemergence
Format in all cases: in vivo
[1] = test system: Russian thistle (Salsola kali)
How it was run: (§1)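 Species sown in silt loam and sprayed preemergence, or grown in peat-based medium to 2–18 cm (1- to 4-leaf stage) and sprayed postemergence, with compounds in non-phytotoxic solvent plus surfactant. Visual injury scored versus controls after 14–21 d in a controlled environment, 0 (no effect) to 100 (complete control).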

[2] = test system: barley, winter (winter barley, Hordeum vulgare)
How it was run: as §1

[3] = test system: bromegrass, downy (downy bromegrass, Bromus tectorum)
How it was run: as §1

[4] = test system: buckwheat, wild (wild buckwheat, Polygonum convolvulus)
How it was run: as §1

[5] = test system: canarygrass (Phalaris minor)
How it was run: as §1

[6] = test system: chickweed (common chickweed, Stellaria media)
How it was run: as §1

[7] = test system: field violet (Viola arvensis)
How it was run: as §1

[8] = test system: galium (catchweed bedstraw, Galium aparine)
How it was run: as §1

[9] = test system: kochia (Kochia scoparia)
How it was run: as §1

[10] = test system: oat, wild (wild oat, Avena fatua)
How it was run: as §1

[11] = test system: pigweed (Amaranthus retroflexus)
How it was run: as §1

[12] = test system: radish, wild (wild radish, Raphanus raphanistrum)
How it was run: as §1

[13] = test system: windgrass (Apera spica-venti)
How it was run: as §1

[14] = Postemergence, 31 g ai/ha, scale 0 to 100 (0 no effect, 100 complete control)
[15] = Postemergence, 125 g ai/ha, visual rating on scale 0 (no effect) to 100 (complete control), 14 to 21 d
[16] = Postemergence, 250 g ai/ha, scale 0 to 100 (0 no effect, 100 complete control)
[17] = Preemergence, 62 g ai/ha, scale 0 to 100 (0 no effect, 100 complete control)
[18] = Preemergence, 125 g ai/ha, scale 0 to 100 (0 no effect, 100 complete control)
[19] = Preemergence, 250 g ai/ha, scale 0 to 100 (0 no effect, 100 complete control)
[20] = postemergence, 62 g ai/ha, scale 0 to 100, 0 no effect, 100 complete control

In the case of `CCOC(=O)Oc1c(C)nn(C)c(=O)c1-c1c(C)ccc2ccccc12` [Compound 73], the “Russian Thistle plant response rating” value [1, 14] is reported as 75, the “Plant response rating, Russian Thistle” value [1, 15] is reported as 80 and the “Plant response rating, Russian Thistle” value [1, 16] is reported as 85. The “Plant response rating (scale of 0 to 100), Russian Thistle” value ([1]; Preemergence, 31 g ai/ha) was 10, the “Plant response rating, Russian Thistle” value [1, 17] was 25 and the “Plant response rating, Russian Thistle” value [1, 18] was 40. For the same compound, the “Plant response rating, Russian Thistle” value [1, 19] was 75, the “Plant response rating, Russian Thistle” value [1, 20] was 80 and the “Barley, Winter plant response rating” value [2, 14] was 15. For the same compound, the “Plant response rating, Barley, Winter” value [2, 15] was 20, the “Plant response rating, Barley, Winter” value [2, 16] was 35 and the “Plant response rating (scale of 0 to 100), Barley, Winter” value ([2]; Preemergence, 31 g ai/ha) was 5. For the same compound, the “Plant response rating, Barley, Winter” value [2, 17] was 40, the “Plant response rating, Barley, Winter” value [2, 18] was 60 and the “Plant response rating, Barley, Winter” value [2, 19] was 75. For the same compound, the “Plant response rating, Barley, Winter” value [2, 20] was 15, the “Bromegrass, Downy plant response rating” value [3, 14] was 25 and the “Plant response rating, Bromegrass, Downy” value [3, 15] was 70. For the same compound, the “Plant response rating, Bromegrass, Downy” value [3, 16] was 85, the “Plant response rating (scale of 0 to 100), Bromegrass, Downy” value ([3]; Preemergence, 31 g ai/ha) was 20 and the “Plant response rating, Bromegrass, Downy” value [3, 17] was 40. For the same compound, the “Plant response rating, Bromegrass, Downy” value [3, 18] was 50, the “Plant response rating, Bromegrass, Downy” value [3, 19] was 90 and the “Plant response rating, Bromegrass, Downy” value [3, 20] was 55. The “Buckwheat, Wild plant response rating” value [4, 14] was 95, the “Plant response rating, Buckwheat, Wild” value [4, 15] was 100 and the “Plant response rating, Buckwheat, Wild” value [4, 16] was 100. For the same compound, the “Plant response rating (scale of 0 to 100), Buckwheat, Wild” value ([4]; Preemergence, 31 g ai/ha) was 0, the “Plant response rating, Buckwheat, Wild” value [4, 17] was 0 and the “Plant response rating, Buckwheat, Wild” value [4, 18] was 60. For the same compound, the “Plant response rating, Buckwheat, Wild” value [4, 19] was 30, the “Plant response rating, Buckwheat, Wild” value [4, 20] was 100 and the “Canarygrass plant response rating” value [5, 14] was 60. For the same compound, the “Plant response rating, Canarygrass” value [5, 15] was 80, the “Plant response rating, Canarygrass” value [5, 16] was 90 and the “Plant response rating (scale of 0 to 100), Canarygrass” value ([5]; Preemergence, 31 g ai/ha) was 80. For the same compound, the “Plant response rating, Canarygrass” value [5, 17] was 85, the “Plant response rating, Canarygrass” value [5, 18] was 90 and the “Plant response rating, Canarygrass” value [5, 19] was 100. The “Plant response rating, Canarygrass” value [5, 20] was 70, the “Chickweed plant response rating” value [6, 14] was 90 and the “Plant response rating, Chickweed” value [6, 15] was 100. The “Plant response rating, Chickweed” value [6, 16] was 100, the “Plant response rating (scale of 0 to 100), Chickweed” value ([6]; Preemergence, 31 g ai/ha) was 95 and the “Plant response rating, Chickweed” value [6, 17] was 90. The “Plant response rating, Chickweed” value [6, 18] was 100, the “Plant response rating, Chickweed” value [6, 19] was 100 and the “Plant response rating, Chickweed” value [6, 20] was 95. For the same compound, the “Field Violet plant response rating” value [7, 14] was 90, the “Plant response rating, Field Violet” value [7, 15] was 90 and the “Plant response rating, Field Violet” value [7, 16] was 90. The “Plant response rating (scale of 0 to 100), Field Violet” value ([7]; Preemergence, 31 g ai/ha) was 35, the “Plant response rating, Field Violet” value [7, 17] was 75 and the “Plant response rating, Field Violet” value [7, 18] was 80. The “Plant response rating, Field Violet” value [7, 19] was 95, the “Plant response rating, Field Violet” value [7, 20] was 95 and the “Galium plant response rating” value [8, 14] was 95. For the same compound, the “Plant response rating, Galium” value [8, 15] was 100, the “Plant response rating, Galium” value [8, 16] was 100 and the “Plant response rating (scale of 0 to 100), Galium” value ([8]; Preemergence, 31 g ai/ha) was 40. The “Plant response rating, Galium” value [8, 17] was 80, the “Plant response rating, Galium” value [8, 18] was 80 and the “Plant response rating, Galium” value [8, 19] was 90. The “Plant response rating, Galium” value [8, 20] was 100, the “Kochia plant response rating” value [9, 14] was 100 and the “Plant response rating, Kochia” value [9, 15] was 100. For the same compound, the “Plant response rating, Kochia” value [9, 16] was 100, the “Plant response rating (scale of 0 to 100), Kochia” value ([9]; Preemergence, 31 g ai/ha) was 30 and the “Plant response rating, Kochia” value [9, 17] was 30. For the same compound, the “Plant response rating, Kochia” value [9, 18] was 85, the “Plant response rating, Kochia” value [9, 19] was 95 and the “Plant response rating, Kochia” value [9, 20] was 80. The “Oat, Wild plant response rating” value [10, 14] was 85, the “Plant response rating, Oat, Wild” value [10, 15] was 95 and the “Plant response rating, Oat, Wild” value [10, 16] was 100. For the same compound, the “Plant response rating (scale of 0 to 100), Oat, Wild” value ([10]; Preemergence, 31 g ai/ha) was 75, the “Plant response rating, Oat, Wild” value [10, 17] was 90 and the “Plant response rating, Oat, Wild” value [10, 18] was 85. The “Plant response rating, Oat, Wild” value [10, 19] was 100, the “Plant response rating, Oat, Wild” value [10, 20] was 95 and the “Pigweed plant response rating” value [11, 14] was 100. For the same compound, the “Plant response rating, Pigweed” value [11, 15] was 100, the “Plant response rating, Pigweed” value [11, 16] was 100 and the “Plant response rating (scale of 0 to 100), Pigweed” value ([11]; Preemergence, 31 g ai/ha) was 70. The “Plant response rating, Pigweed” value [11, 17] was 100, the “Plant response rating, Pigweed” value [11, 18] was 100 and the “Plant response rating, Pigweed” value [11, 19] was 100. For the same compound, the “Plant response rating, Pigweed” value [11, 20] was 100, the “Radish, Wild plant response rating” value [12, 14] was 75 and the “Plant response rating, Radish, Wild” value [12, 15] was 100. The “Plant response rating, Radish, Wild” value [12, 16] was 100, the “Plant response rating (scale of 0 to 100), Radish, Wild” value ([12]; Preemergence, 31 g ai/ha) was 30 and the “Plant response rating, Radish, Wild” value [12, 17] was 75. For the same compound, the “Plant response rating, Radish, Wild” value [12, 18] was 100, the “Plant response rating, Radish, Wild” value [12, 19] was 90 and the “Plant response rating, Radish, Wild” value [12, 20] was 95. The “Windgrass plant response rating” value [13, 14] was 70, the “Plant response rating, Windgrass” value [13, 15] was 75 and the “Plant response rating, Windgrass” value [13, 16] was 85. For the same compound, the “Plant response rating (scale of 0 to 100), Windgrass” value ([13]; Preemergence, 31 g ai/ha) was 40, the “Plant response rating, Windgrass” value [13, 17] was 65 and the “Plant response rating, Windgrass” value [13, 18] was 90. The “Plant response rating, Windgrass” value [13, 19] was 95 and the “Plant response rating, Windgrass” value [13, 20] was 70.
